Measured values reported in patent publication US7276492B2, “Use of ACE inhibitors for treatment of patients suffering from behavioral disorders” (priority 2000, dated 2007).

How the values were obtained:
[1] = system: temper, rage and outburst behavior disorder (TROBD); assay: Example 1: lisinopril regimen in a patient suffering from TROBD; assay type: in vivo, human; details: for relief of TROBD by prior treatments: prior treatments of the same patient, before lisinopril
Excerpt: The TROBD was an endogenous behavioral disorder. […] When confined to their room, the patient would act out with banging and stomping. Episodes were accompanied by physiological changes including dilation of pupils, expressionless face and a rise in blood pressure.
With lisinopril medication as noted above over a period of about four weeks, definite changes in behavior were evident. […] At home, they retreated from a situation triggering the event to their room, where they remained quiet.
Each of the three episodes occurred at school. In one episode, the patient was working on a computer and refused to give up their work station when their allotted time had been used up. […] A second episode was triggered when the patient was asked to make up a class they had missed. They refused to go to the class but voluntarily moved themself to a “cooling room” to allow their temper to subside. They again, when so instructed, walked to the school office without being physically coerced. In a third episode, the patient was asked to leave the classroom because they would not stop talking during a quiet time. In this case, there was a limited degree of acting out in that, while sitting in a chair, they kicked a desk which was knocked over. They then allowed themself to be escorted by police officers to the school office without being physically coerced. In the office, they kicked another desk and was taken by ambulance to a children's hospital for evaluation.

central nervous system = details: of the persons treated; cited from earlier work
[2] = under treatment, approximately two and one-half months

COC(=O)C(c1ccccc1)C1CCCCN1 (stereo not shown) [methylphenidate]
relief of TROBD by prior treatments [1]: ineffective to provide adequate relief

C[C@H](N)Cc1ccccc1 [dextroamphetamine]
relief of TROBD by prior treatments [1]: ineffective to provide adequate relief

CCOC(=O)[C@H](CCc1ccccc1)N[C@@H](C)C(=O)N1CCC[C@H]1C(=O)O [enalapril]
incidence of dream abnormality (central nervous system): less than one

CCOC(=O)[C@H](CCc1ccccc1)N[C@@H](C)C(=O)N1Cc2cc(OC)c(OC)cc2C[C@H]1C(=O)O [moexipril]
incidence of mood change (central nervous system): less than one

CCC(=O)O[C@@H](O[P@](=O)(CCCCc1ccccc1)CC(=O)N1C[C@H](C2CCCCC2)C[C@H]1C(=O)O)C(C)C [fosinopril]
incidence of behavior change (central nervous system): less than one | incidence of memory disturbance (central nervous system): less than one | incidence of mood change (central nervous system): less than one

NCCCC[C@H](N[C@@H](CCc1ccccc1)C(=O)O)C(=O)N1CCC[C@H]1C(=O)O [lisinopril]
violent outburst during episodes ([1]; lisinopril 10 mg per day oral, about four weeks): without violent outburst | duration of episodes of rage and/or violent behavior ([1]; lisinopril 10 mg per day oral, about four weeks, prior to medication approximately twenty minutes per episode): five to ten | frequency of episodes ([1]; lisinopril 10 mg per day oral, about four weeks, prior to medication two to four episodes per week): approximately one | blood pressure during the three most marked temper-related episodes [1, 2]: 128/64 | degree of violence in episodes compared to behavior prior to treatment [1, 2]: significantly reduced | dilation of pupils [1, 2]: no noticeable dilation of pupils
